Assay results as given in ChEMBL document CHEMBL1671662, “In vitro activities of telavancin and six comparator agents against anaerobic bacterial isolates” (2009).
Converted amounts (≈) assume the structure as drawn.

Experiments:
Actinomyces naeslundii = test: Antibacterial activity against Actinomyces naeslundii by CLSI M11-A6 agar dilution method; assay type: functional
Prevotella nigrescens = test: Antibacterial activity against Prevotella nigrescens by CLSI M11-A6 agar dilution method; assay type: functional
Ruminococcus obeum = test: Antibacterial activity against Ruminococcus obeum by CLSI M11-A6 agar dilution method; assay type: functional; settings: Blautia obeum
Hoylesella loescheii = test: Antibacterial activity against Prevotella loescheii by CLSI M11-A6 agar dilution method; assay type: functional
Prevotella bivia = test: Antibacterial activity against Prevotella bivia by CLSI M11-A6 agar dilution method; assay type: functional
[1] = test system: Bifidobacterium pseudolongum; test: Antibacterial activity against Bifidobacterium pseudolongum by CLSI M11-A6 agar dilution method; assay type: functional
Clostridium subterminale = test: Antibacterial activity against Clostridium subterminale by CLSI M11-A6 agar dilution method; assay type: functional
Clostridium sporogenes = test: Antibacterial activity against Clostridium sporogenes by CLSI M11-A6 agar dilution method; assay type: functional
Hoylesella oralis = test: Antibacterial activity against Prevotella oralis by CLSI M11-A6 agar dilution method; assay type: functional
Fusobacterium varium = test: Antibacterial activity against Fusobacterium varium by CLSI M11-A6 agar dilution method; assay type: functional
Thomasclavelia ramosa = test: Antibacterial activity against Clostridium ramosum by CLSI M11-A6 agar dilution method; assay type: functional
Clostridium hathewayi = test: Antibacterial activity against Clostridium hathewayi by CLSI M11-A6 agar dilution method; assay type: functional; settings: Hungatella hathewayi
Streptococcus anginosus = test: Antibacterial activity against Streptococcus anginosus by CLSI M11-A6 agar dilution method; assay type: functional
[2] = test system: Sutterella wadsworthensis; test: Antibacterial activity against Sutterella wadsworthensis by CLSI M11-A6 agar dilution method; assay type: functional
[3] = test system: Parabacteroides distasonis; test: Antibacterial activity against Parabacteroides distasonis by CLSI M11-A6 agar dilution method; assay type: functional
Blautia producta = test: Antibacterial activity against Ruminococcus productus by CLSI M11-A6 agar dilution method; assay type: functional
[4] = test system: Clostridium paraputrificum; test: Antibacterial activity against Clostridium paraputrificum by CLSI M11-A6 agar dilution method; assay type: functional
Prevotella denticola = test: Antibacterial activity against Prevotella P denticola by CLSI M11-A6 agar dilution method; assay type: functional
Clostridioides difficile = test: Antibacterial activity against Clostridium difficile by CLSI M11-A6 agar dilution method; assay type: functional
Coriobacterium = test: Antibacterial activity against […] by CLSI M11-A6 agar dilution method; assay type: functional
[5] = test system: Bifidobacterium adolescentis; test: Antibacterial activity against Bifidobacterium adolescentis by CLSI M11-A6 agar dilution method; assay type: functional
Eggerthella lenta = test: Antibacterial activity against Eggerthella lenta by CLSI M11-A6 agar dilution method; assay type: functional
Ruminococcus albus = test: Antibacterial activity against Ruminococcus albus by CLSI M11-A6 agar dilution method; assay type: functional; settings: Hominimerdicola alba
Holdemania filiformis = test: Antibacterial activity against Holdemania filiformis by CLSI M11-A6 agar dilution method; assay type: functional
Clostridium bolteae = test: Antibacterial activity against Clostridium bolteae by CLSI M11-A6 agar dilution method; assay type: functional; settings: Enterocloster bolteae
Prevotella intermedia = test: Antibacterial activity against Prevotella P intermedia by CLSI M11-A6 agar dilution method; assay type: functional
Clostridium disporicum = test: Antibacterial activity against Clostridium disporicum by CLSI M11-A6 agar dilution method; assay type: functional
Finegoldia magna = test: Antibacterial activity against Finegoldia magna by CLSI M11-A6 agar dilution method; assay type: functional
[6] = test system: Clostridium sporosphaeroides; test: Antibacterial activity against Clostridium sporosphaeroides by CLSI M11-A6 agar dilution method; assay type: functional; settings: Faecalispora sporosphaeroides
Blautia luti = test: Antibacterial activity against Ruminococcus luti by CLSI M11-A6 agar dilution method; assay type: functional
[7] = test system: Coprobacillus cateniformis; test: Antibacterial activity against Coprobacillus cateniformis by CLSI M11-A6 agar dilution method; assay type: functional
Clostridium sp. = test: Antibacterial activity against Clostridium sp. by CLSI M11-A6 agar dilution method; assay type: functional
Anaerococcus prevotii = test: Antibacterial activity against Anaerococcus prevotii by CLSI M11-A6 agar dilution method; assay type: functional
Fusobacterium mortiferum = test: Antibacterial activity against Fusobacterium mortiferum by CLSI M11-A6 agar dilution method; assay type: functional
[8] = Antibacterial activity against Bifidobacterium infantis by CLSI M11-A6 agar dilution method; assay type: functional, Bifidobacterium longum subsp. infantis; settings: Bifidobacterium longum
Prevotella oris = test: Antibacterial activity against Prevotella oris by CLSI M11-A6 agar dilution method; assay type: functional; settings: Segatella oris
Collinsella aerofaciens = test: Antibacterial activity against Colinsella aerofaciens by CLSI M11-A6 agar dilution method; assay type: functional
Bacteroides ovatus = test: Antibacterial activity against Bacteroides ovatus by CLSI M11-A6 agar dilution method; assay type: functional

Work on `CCC[C@@H]1C[C@@H](C(=O)N[C@@H]([C@H]2O[C@H](SC)[C@H](O)[C@@H](O)[C@H]2O)[C@H](C)Cl)N(C)C1` [CLINDAMYCIN] yielded an MIC50 (Actinomyces naeslundii) of at most 0.12 µg/mL, an MIC90 (Actinomyces naeslundii) of 1 µg/mL (≈ 2.35 µM) and an MIC (Prevotella nigrescens) of at most 0.12 µg/mL. For the same compound, the MIC50 (Prevotella nigrescens) was at most 0.12 µg/mL, the MIC90 (Prevotella nigrescens) was at most 0.12 µg/mL and the MIC50 (Ruminococcus obeum) was at most 0.12 µg/mL. It also gave an MIC90 (Ruminococcus obeum) of at most 0.12 µg/mL, an MIC (Hoylesella loescheii) of at most 0.12 µg/mL and an MIC50 (Hoylesella loescheii) of at most 0.12 µg/mL. It also gave an MIC90 (Hoylesella loescheii) of at most 0.12 µg/mL, an MIC (Prevotella bivia) of at most 0.12 µg/mL and an MIC50 (Prevotella bivia) of at most 0.12 µg/mL. For the same compound, the MIC90 (Prevotella bivia) was at most 0.12 µg/mL, the MIC50 [1] was at most 0.12 µg/mL and the MIC90 [1] was 1 µg/mL (≈ 2.35 µM). For the same compound, the MIC50 (Clostridium subterminale) was 0.5 µg/mL (≈ 1.18 µM), the MIC90 (Clostridium subterminale) was 8 µg/mL (≈ 18.8 µM) and the MIC90 (Clostridium sporogenes) was 4 µg/mL (≈ 9.41 µM). The MIC (Hoylesella oralis) was at most 0.12 µg/mL, the MIC50 (Hoylesella oralis) was at most 0.12 µg/mL and the MIC90 (Hoylesella oralis) was at most 0.12 µg/mL. For the same compound, the MIC50 (Fusobacterium varium) was 1 µg/mL (≈ 2.35 µM), the MIC90 (Fusobacterium varium) was 32 µg/mL (≈ 75.3 µM) and the MIC50 (Thomasclavelia ramosa) was 4 µg/mL (≈ 9.41 µM). The MIC90 (Thomasclavelia ramosa) was 8 µg/mL (≈ 18.8 µM), the MIC50 (Clostridium hathewayi) was 0.5 µg/mL (≈ 1.18 µM) and the MIC90 (Clostridium hathewayi) was 2 µg/mL (≈ 4.71 µM). The MIC90 (Streptococcus anginosus) was 0.5 µg/mL (≈ 1.18 µM), the MIC50 [2] was 16 µg/mL (≈ 37.6 µM) and the MIC90 [2] was 128 µg/mL (≈ 301 µM). It also gave an MIC50 [3] of 2 µg/mL (≈ 4.71 µM), an MIC90 [3] of 64 µg/mL (≈ 151 µM) and an MIC50 (Blautia producta) of at most 0.12 µg/mL. The MIC90 (Blautia producta) was 2 µg/mL (≈ 4.71 µM), the MIC90 [4] was 4 µg/mL (≈ 9.41 µM) and the MIC (Prevotella denticola) was at most 0.12 µg/mL. It also gave an MIC50 (Prevotella denticola) of at most 0.12 µg/mL, an MIC90 (Prevotella denticola) of at most 0.12 µg/mL and an MIC50 (Clostridioides difficile) of 4 µg/mL (≈ 9.41 µM). The MIC90 (Clostridioides difficile) was 128 µg/mL (≈ 301 µM), the MIC50 (Coriobacterium) was at most 0.12 µg/mL and the MIC90 (Coriobacterium) was 1 µg/mL (≈ 2.35 µM). It also gave an MIC50 [5] of at most 0.12 µg/mL, an MIC90 [5] of 1 µg/mL (≈ 2.35 µM) and an MIC50 (Eggerthella lenta) of at most 0.12 µg/mL. The MIC90 (Eggerthella lenta) was 1 µg/mL (≈ 2.35 µM), the MIC50 (Ruminococcus albus) was at most 0.12 µg/mL and the MIC90 (Ruminococcus albus) was 2 µg/mL (≈ 4.71 µM). The MIC50 (Holdemania filiformis) was at most 0.12 µg/mL, the MIC90 (Holdemania filiformis) was 1 µg/mL (≈ 2.35 µM) and the MIC50 (Clostridium bolteae) was 2 µg/mL (≈ 4.71 µM). For the same compound, the MIC90 (Clostridium bolteae) was 4 µg/mL (≈ 9.41 µM), the MIC (Prevotella intermedia) was at most 0.12 µg/mL and the MIC50 (Prevotella intermedia) was at most 0.12 µg/mL. For the same compound, the MIC90 (Prevotella intermedia) was at most 0.12 µg/mL, the MIC90 (Clostridium disporicum) was 4 µg/mL (≈ 9.41 µM) and the MIC90 (Finegoldia magna) was over 128 µg/mL. It also gave an MIC90 [6] of 4 µg/mL (≈ 9.41 µM), an MIC50 (Blautia luti) of at most 0.12 µg/mL and an MIC90 (Blautia luti) of 2 µg/mL (≈ 4.71 µM). The MIC50 [7] was at most 0.12 µg/mL, the MIC90 [7] was 1 µg/mL (≈ 2.35 µM) and the MIC90 (Clostridium sp.) was 4 µg/mL (≈ 9.41 µM). For the same compound, the MIC90 (Anaerococcus prevotii) was over 128 µg/mL, the MIC50 (Fusobacterium mortiferum) was 1 µg/mL (≈ 2.35 µM) and the MIC90 (Fusobacterium mortiferum) was 32 µg/mL (≈ 75.3 µM). The MIC50 [8] was at most 0.12 µg/mL, the MIC90 [8] was 1 µg/mL (≈ 2.35 µM) and the MIC (Prevotella oris) was at most 0.12 µg/mL. For the same compound, the MIC50 (Prevotella oris) was at most 0.12 µg/mL, the MIC90 (Prevotella oris) was at most 0.12 µg/mL and the MIC50 (Collinsella aerofaciens) was at most 0.12 µg/mL. The MIC90 (Collinsella aerofaciens) was 1 µg/mL (≈ 2.35 µM), the MIC50 (Bacteroides ovatus) was 2 µg/mL (≈ 4.71 µM) and the MIC90 (Bacteroides ovatus) was over 128 µg/mL.
